Where only a bound is given, the exact number is not on record here.

This experiment deals with HCV replicon. The experiment can be described thus: HCV replicon replication assay (NPT ELISA) in Huh-7 replicon-containing cells. The format is cell-based. The note with it: Hepatitis C virus, 72 h; HCV replicon in Huh-7 cells, three days incubation; read-out: EC50. On the procedure: Compounds claimed herein are tested for the ability to inhibit viral replication of the Hepatitis C replicon in cultured cells in which the HCV replicon construct has been incorporated. The HCV replicon system was described by Bartenschlager, et. al (Science, 285, pp. 110-113 (1999)). The replicon system is predictive of in vivo anti-HCV activity; compounds that are active in humans uniformly evidence activity in the replicon assay.
In this assay HCV replicon containing cells are treated with different concentrations of the test compound to ascertain the ability of the test compound to suppress replication of the HCV replicon. As a positive control, HCV replicon-containing cells are treated with different concentrations of interferon alpha, a known inhibitor of HCV replication. The replicon assay system includes Neomycin Phosphotransferase (NPT) as a component of the replicon itself in order to detect the transcription of replicon gene products in the host cell. Cells in which the HCV replicon is actively replicating have high levels of NPT; the level of NPT is proportional to HCV replication. […] The NPT level of each sample is measured using a captured ELISA.
A protocol for testing compounds for the ability to inhibit viral replication of the Hepatitis C replicon cultured cells in which the replicon construct has been incorporated, follows.
The HCV replicon contains, 5′-3′, the HCV-IRES, the neomycin phosphotransferase (neo) gene, the IRES of encephalomyocarditis virus, which directs translation of HCV sequences NS3 to NS5B, and the 3′-NTR. The sequence of the HCV replicon has been deposited in GenBank (Accession no. AJ242652).
The replicon is transfected into Huh-7 cells using standard methods such as electroporation.
The equipment and materials include, but are not limited to, Huh-7 HCV replicon-containing cells, maintenance media (DMEM (Dulbecco's modified Eagle media) supplemented with 10% FBS, L-glutamine, non-essential amino acids, penicillin (100 units/ml), streptomycin (100 micrograms/ml), and 500 micrograms/ml of Geneticin (G418), screening media (DMEM supplemented with 10% FBS, L-glutamine, non-essential amino acids, penicillin (100 units/ml) and streptomycin (100 micrograms/ml)), 96 well tissue culture plates (flat bottom), 96 well plates (U bottom for drug dilution), Interferon alpha for positive control, fixation reagent (such as methanol: acetone), primary antibody (rabbit anti-NPTII), secondary antibody: Eu-N1 l, and enhancement solution.
HCV replicon-containing cells support high levels of viral RNA replicon replication when their density is suitable. Over-confluency causes decreased viral RNA replication. Therefore, cells must be kept growing in log phase in the presence of 500 micrograms/ml of G418. Generally, cells should be passed twice a week at 1: 4-6 dilution. Cell maintenance is conducted as follows:
HCV replicon-containing cells are examined under a microscope to ensure that cells growing well. Cells are rinsed once with PBS and 2 ml trypsin is added. The cell/trypsin mixture is incubated at 37° C. in a CO2 incubator for 3-5 minutes. After incubation 10 ml of complete media is added to stop the trypsinization reaction. Cells are blown gently, put into a 15 ml tube, and spun at 1200 rpm for 4 minutes. The trypsin/medium solution is removed. Medium (5 ml) is added and the cells are mixed carefully. The cells are counted.
The cells are then seeded onto 96-well plates at a density of 6000-7500 cells/100 microliters/well (6-7.5×10^5 cells/10 ml/plate). The plates are then incubated at 37° C. in a 5% CO2 incubator.
Cells are examined under a microscope approximated 24 hours after seeding and prior to adding drugs. If counting and dilution were performed correctly, cells are 60-70% confluent and nearly all cells should attach and spread evenly in the well.
HCV replicon-containing cells are rinsed with once PBS once; 2 mls of trypsin are then added. Cells are incubated at 37° C. in a 5% CO2 incubator for 3-5 minutes. […]
On the technique in general: In antiviral work, replicon cells carry a viral genome segment that copies itself.
A word on the EC50: it is the concentration giving half of the maximal effect. Take `C=CC1CC1(NC(=O)[C@@H]1C[C@@H](Oc2cc(-c3ccccc3)nc3cc(OC)ccc23)CN1C(=O)C[C@H](C(=O)N1C(=O)OC[C@@H]1Cc1ccccc1)C(C)(C)C)C(=O)NS(=O)(=O)C1CC1` (stereo partly drawn) [Compound 47, (2S,4R)-1-((S)-3-((S)-4-benzyl-2-oxooxazolidine-3-carbonyl)-4,4-dimethyl-pentanoyl)-N-(1-(cyclopropyl-sulfonylcarbamoyl)-2-vinylcyclopropyl)-4-(7-methoxy-2-phenylquinolin-4-yloxy)pyrrolidine-2-carboxamide]: the concentration for a half-maximal effect (EC50) fell in the range of 1 to 10 µM. In the case of `C=C[C@@H]1C[C@]1(NC(=O)[C@@H]1C[C@@H](Oc2cc(-c3ccccc3)nc3cc(OC)ccc23)CN1C(=O)[C@@H](CC(=O)N1CCOCC1)C(C)(C)C)C(=O)NS(=O)(=O)C1CC1` [Compound 48, (2S,4R)-1-((S)-2-tert-butyl-4-morpholino-4-oxobutanoyl)-N-((1R,2S)-1-(cyclo-propylsulfonyl-carbamoyl)-2-vinylcyclopropyl)-4-(7-methoxy-2-phenylquinolin-4-yloxy)pyrrolidine-2-carboxamide], the EC50 is below 1 µM.

As for `C=C[C@@H]1C[C@]1(NC(=O)[C@@H]1C[C@@H](Oc2cc(-c3ccccc3)nc3cc(OC)ccc23)CN1C(=O)[C@@H](CC(=O)NC1CCCC1)C(C)(C)C)C(=O)NS(=O)(=O)C1CC1` [Compound 49, (2S,4R)-1-((S)-2-tert-butyl-4-(cyclopentylamino)-4-oxobutanoyl)-N-((1R,2S)-1-(cyclopropyl-sulfonylcarbamoyl)-2-vinylcyclopropyl)-4-(7-methoxy-2-phenylquinolin-4-yloxy)pyrrolidine-2-carboxamide], the EC50 was below 1 µM.

As to `C=CC1CC1(NC(=O)[C@@H]1C[C@@H](OC(=O)N2Cc3cccc(F)c3C2)CN1C(=O)[C@@H](CC(=O)N1CCCCC1)C(C)(C)C)C(=O)NS(=O)(=O)C1CC1` (stereo partly drawn) [Compound 50, (3R,5S)-1-((S)-2-tert-butyl-4-oxo-4-(piperidin-1-yl)butanoyl)-5-(1-(cyclopropyl-sulfonylcarbamoyl)-2-vinylcyclopropyl-carbamoyl)pyr-rolidin-3-yl 4-fluoroisoindoline-2-carboxylate], the EC50 was below 1 µM. The figure for `C=CC1CC1(NC(=O)C1C[C@@H](Oc2cc(-c3ccccc3)nc3cc(OC)ccc23)CN1C(=O)[C@H](CC(=O)N1CCCCC1)CC(C)C)C(=O)NS(=O)(=O)C1CC1` (stereo partly drawn) [Compound 51, (4R)-N-(1-(cyclopropyl-sulfonylcarbamoyl)-2-vinylcyclopropyl)-4-(7-methoxy-2-phenylquinolin-4-yloxy)-1-((S)-4-methyl-2-(2-oxo-2-(piperidin-1-yl)ethyl)pentano-yl)pyrrolidine-2-carboxamide] is 1 to 10 µM; for `C=CC1CC1(NC(=O)C1C[C@@H](Oc2cc(-c3ccccc3)nc3cc(OC)ccc23)CN1C(=O)[C@@H](CC(=O)N1CCCCC1)Cc1ccccc1)C(=O)NS(=O)(=O)C1CC1` (stereo partly drawn) [Compound 52, (4R)-1-((R)-2-benzyl-4-oxo-4-(piperidin-1-yl)butanoyl)-N-(1-(cyclopropyl-sulfonylcarbamoyl)-2-vinylcyclopropyl)-4-(7-methoxy-2-phenylquinolin-4-yloxy)pyrrolidine-2-carboxamide] it is below 1 µM; for `C=CC1CC1(NC(=O)C1C[C@@H](Oc2cc(-c3ccccc3)nc3cc(OC)ccc23)CN1C(=O)[C@@H](CC(=O)N1CCCCC1)C1CCCCC1)C(=O)NS(=O)(=O)C1CC1` (stereo partly drawn) [Compound 53, (4R)-1-((S)-2-cyclohexyl-4-oxo-4-(piperidin-1-yl)butanoyl)-N-(1-(cyclopropyl-sulfonylcarbamoyl)-2-vinylcyclopropyl)-4-(7-methoxy-2-phenylquinolin-4-yloxy)pyrrolidine-2-carboxamide] it is below 1 µM. As to `C=CC1CC1(NC(=O)C1C[C@@H](Oc2cc(-c3ccccc3)nc3cc(OC)ccc23)CN1C(=O)[C@@H](CC(=O)N1CCCCC1)CC1CCCCC1)C(=O)NS(=O)(=O)C1CC1` (stereo partly drawn) [Compound 54, (4R)-1-((R)-2-(cyclohexylmethyl)-4-oxo-4-(piperidin-1-yl)butanoyl)-N-(1-(cyclopropyl-sulfonylcarbamoyl)-2-vinylcyclopropyl)-4-(7-methoxy-2-phenylquinolin-4-yloxy)pyrrolidine-2-carboxamide], the half-maximal effective concentration (EC50) was below 1 µM.

With `C=C[C@@H]1C[C@]1(NC(=O)[C@@H]1C[C@@H](Oc2cc(-c3ccccc3)nc3cc(OC)ccc23)CN1C(=O)C(CC(=O)N1CCCCC1)C(C)(C)C)C(=O)NS(=O)(=O)C1CC1` (stereo partly drawn) [Compound 55, (2S,4R)-1-(2-tert-butyl-4-oxo-4-(piperidin-1-yl)butanoyl)-N-((1R,2S)-1-(cyclopropyl-sulfonylcarbamoyl)-2-vinylcyclopropyl)-4-(7-methoxy-2-phenylquinolin-4-yloxy)pyrrolidine-2-carboxamide], the 50% effective concentration (EC50) is below 1 µM. On to `C=C[C@H]1C[C@]1(NC(=O)[C@@H]1C[C@@H](Oc2cc(-c3ccccc3)nc3cc(OC)ccc23)CN1C(=O)C[C@@H](CC1CCCC1)C(=O)N1CCCCC1)C(=O)NS(=O)(=O)C1CC1` [Compound 56, (2S,4R)-1-((R)-3-(cyclopentyl-methyl)-4-oxo-4-(piperidin-1-yl)butanoyl)-N-((1R,2R)-1-(cyclopropyl-sulfonylcarbamoyl)-2-vinylcyclopropyl)-4-(7-methoxy-2-phenylquinolin-4-yloxy)pyrrolidine-2-carboxamide], for which the EC50 is 1 to 10 µM. For the molecule `C=C[C@H]1C[C@]1(NC(=O)[C@@H]1C[C@@H](Oc2cc(-c3ccccc3)nc3cc(OC)ccc23)CN1C(=O)[C@@H](CC(=O)N1CCCCC1)CC1CCCC1)C(=O)NS(=O)(=O)C1CC1` [Compound 57, (2S,4R)-1-((R)-2-(cyclopentylmethyl)-4-oxo-4-(piperidin-1-yl)butanoyl)-N-((1R,2R)-1-(cyclopropyl-sulfonylcarbamoyl)-2-vinylcyclopropyl)-4-(7-methoxy-2-phenylquinolin-4-yloxy)pyrrolidine-2-carboxamide], the EC50 is below 1 µM. As to `C=C[C@H]1C[C@]1(NC(=O)[C@@H]1C[C@@H](Oc2cc(-c3ccccc3)nc3cc(OC)ccc23)CN1C(=O)[C@@H](CC(=O)N1CCCCC1)C(C)C)C(=O)NS(=O)(=O)C1CC1` [Compound 58, (2S,4R)-N-((1R,2R)-1-(cyclopropyl-sulfonylcarbamoyl)-2-vinylcyclopropyl)-1-((S)-2-isopropyl-4-oxo-4-(piperidin-1-yl)butanoyl)-4-(7-methoxy-2-phenylquinolin-4-yloxy)pyrrolidine-2-carboxamide], the EC50 was below 1 µM. With `C=CC1C[C@]1(NC(=O)[C@@H]1C[C@@H](Oc2cc(-c3ccccc3)nc3cc(OC)ccc23)CN1C(=O)[C@@H](CC(=O)N1CCCCC1)c1ccccc1)C(=O)NS(=O)(=O)C1CC1` (stereo partly drawn) [Compound 59, (2S,4R)-N-((1R,2R)-1-(cyclopropyl-sulfonylcarbamoyl)-2-vinylcyclopropyl)-4-(7-methoxy-2-phenylquinolin-4-yloxy)-1-((S)-4-oxo-2-phenyl-4-(piperidin-1-yl)butanoyl)pyr-rolidine-2-carboxamide], the EC50 is below 1 µM. Turning to `C=C[C@H]1C[C@]1(NC(=O)[C@@H]1C[C@@H](Oc2cc(-c3ccccc3)nc3cc(OC)ccc23)CN1C(=O)[C@H](CC(=O)N1CCCCC1)CC1CCCCC1)C(=O)NS(=O)(=O)C1CC1` [Compound 60, (2S,4R)-1-((S)-2-(cyclohexylmethyl)-4-oxo-4-(piperidin-1-yl)butanoyl)-N-((1R,2R)-1-(cyclopropyl-sulfonylcarbamoyl)-2-vinylcyclopropyl)-4-(7-methoxy-2-phenylquinolin-4-yloxy)pyrrolidine-2-carboxamide], the EC50 lay within 1 to 10 µM.

For the origin of these results see US9133115B2 (ACHILLION PHARMACEUTICALS, INC., priority 2008, dated 2015).
